The conditions of series [1]: buffer, pH 7.4.
Series [2] has as its system Yeast ALDH (E.C. 1.2.1.5). As to the kind of experiment: In vitro inhibition of yeast ALDH. In kind it is biochemical. Particulars: for IC50: read-out: ALDH inhibition IC50, 37 °C preincubation; for time to complete inhibition of ALDH: inhibitor at ten-fold the IC50.
Series [3] addresses ALDH peptide A286-R307 (AIDWIAAGIFYLNSGQNCTANSR) (Saccharomyces cerevisiae, UniProt P47771). The series is described as follows: LC-MS reactivity with ALDH peptide A286-R307.
Series [4] can be described thus: UV-Vis spectroscopy assay for decomposition in buffer. Conditions: no PLE.
The target in a further series is oxymyoglobin (MbO2) (Equus caballus, UniProt P68082). The series is described as follows: UV-vis assay of metMb formation from MbO2. In kind it is biochemical.
Sequence of oxymyoglobin (MbO2) (P68082 whole entry): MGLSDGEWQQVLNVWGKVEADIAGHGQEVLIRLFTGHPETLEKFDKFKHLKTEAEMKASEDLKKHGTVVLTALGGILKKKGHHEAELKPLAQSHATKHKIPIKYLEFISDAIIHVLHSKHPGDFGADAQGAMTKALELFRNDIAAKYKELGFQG
Series [5] relates to Yeast ALDH (E.C. 1.2.1.5). As to the kind of experiment: In vitro reactivation of inhibited yeast ALDH by DTT. In kind it is biochemical. Particulars: inhibitor at ten-times IC50, DTT 10 mM.
Series [6] concerns Yeast ALDH (E.C. 1.2.1.5). Conditions: read-out: ALDH inhibition, reported IC50; ref [24], [25]; cited from earlier work.
For series [7] the following is noted: buffer; cited from earlier work.
Series [8] in a line: Water solubility in buffer. In kind it is physicochemical.
The mark [9] stands for this setting: 10 eq. reagent, peptide 10 μM, no PLE, room temperature.

Entries after “also recorded” stand apart in the source; their conditions may differ. Where two headings read alike, the source gives them in different places.

Sequence of UniProt P47771 (P47771 286-307): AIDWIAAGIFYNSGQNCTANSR

In the case of “4-Nitrosotetrahydro-2H-pyran-4-yl Pivalate [compound 5]”, in series [1], the “decomposition t1/2” value turned out to be 32 h. The values for the IC50 in series [2] (absence of PLE) and in [2] (presence of PLE (9 U/μmol)) were 3300 nM and 3500 nM, respectively. Moreover, the “Product(s) of reaction with ALDH peptide” value is “RSSR and sulfinamide” in series [3] (10 eq. reagent + PLE (9 U/μmol), room temperature); “RSSR” in series [3] (setting [9]). The “decomposition rate constant k” value in series [4] (3 % mixture of DMF:PBS (100 mM, pH 7.4), 37 °C) turned out to be 6e-06 s⁻¹. The “rate constant of MbO2 conversion to metMb” value at oxymyoglobin (MbO2) (MbO2 42 μM, compound 84 μM, PLE 9 U/μmol, PBS pH 7.4, 37 °C) was found to be 0.0003 s⁻¹. In addition, the “reaction with MbO2 (absorption spectra)” value on oxymyoglobin (MbO2) (absence of PLE) is listed as “no change in the absorption spectra”. The “ALDH enzyme activity restored by DTT” value in series [5] (in the presence of PLE) amounted to 43%; in [5] (no PLE), 63%.

Take `[Na+].[Na+].[O-][N+]([O-])=NO` [AS, Angeli’s salt (NaN2O3, AS)]: the “time to complete inhibition of ALDH” value in series [2] was not above 10 min. The results for the IC50 in series [2] (absence of PLE) and in [6] were 2100 nM and 1800 nM, respectively. In addition, the “Product(s) of reaction with ALDH peptide” value was “sulfinamide-minor; also recorded: dhA -major” in series [3] (setting [9]) and “sulfinamide” in series [3] (1000 eq. reagent). Moreover, the “ALDH enzyme activity restored by DTT” value in series [5] (no PLE) amounted to 46%.

On to `O=Nc1ccccc1` [NB, Nitrosobenzene], for which, in series [2], the “time to complete inhibition of ALDH” value is recorded as not above 10 min. Moreover, the half-inhibitory concentration (IC50) in series [2] (absence of PLE) is 200 nM; in series [6] it was 2500 nM. Moreover, the “Product(s) of reaction with ALDH peptide” value in series [3] (setting [9]) was “N-phenyl sulfinamide”. For the same compound, the “ALDH enzyme activity restored by DTT” value in [5] (no PLE) is listed as 15%.

As for `CC(=O)OC1(N=O)CCCCC1` [compound 1], the “decomposition t1/2 (comparison value)” value in series [7] was 14.8 h.

With `CC(C)(C)C(=O)OC1(N=O)CCCCC1` [compound 2], the “decomposition t1/2 (comparison value)” value in series [7] is 37.8 h.

With `CC(=O)OC1(N=O)CCOCC1` [compound 4, 4-Nitrosotetrahydro-2H-pyran-4-yl Acetate], the solubility in series [8] is 1700 µM. For the same compound, the “decomposition rate constant k” value in series [4] (buffered conditions, PBS 100 mM pH 7.4, 37 °C) came out at 3e-05 s⁻¹.
